#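 Values below derive from 48-hour exposures of cells grown in 96-well plates, with endpoints linearly interpolated between the two concentrations bracketing the appropriate inhibition level. The concentration for 50% growth inhibition is given as GI50. Definition used: TGI = concentration required for complete inhibition of growth.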
# Columns and labels:
# Experiment in all cases: DTP human tumour cell line panel, 48 h
# [1] = tested on: UO-31 renal
# [2] = tested on: A549 NSCLC
# [3] = tested on: RXF 393 renal
# [4] = tested on: NCI-H23 lung
# [5] = tested on: CCRF-CEM leukemia
# [6] = tested on: OVCAR-4 ovarian
# [7] = tested on: NCI/ADR-RES ovarian
# [8] = tested on: MCF7 breast
# [9] = tested on: PC-3 prostate
# [10] = tested on: HS 578T breast
Compound,TGI [1] [µM],TGI [2] [µM],TGI [3] [µM],TGI [4] [µM],TGI [5] [µM],TGI [6] [µM],TGI [7] [µM],TGI [8] [µM],TGI [9] [µM],TGI [10] [µM],GI50 [1] [µM],GI50 [2] [µM],GI50 [9] [µM],GI50 [4] [µM],GI50 [7] [µM],GI50 [8] [µM]
CN(c1ccccc1)c1c(-c2ccccc2)c(=O)oc2c1ccc1occc12,> 100,> 100,> 100,> 100,> 100,> 100,> 100,> 100,–,–,–,–,–,–,–,–
Cc1nc2ccccc2n1CCc1nc2ccccc2[nH]1,> 100,> 100,> 100,> 100,> 100,> 100,> 100,> 100,> 100,> 100,–,–,–,–,–,–
CC12CC(=O)NN=C1c1ccccc1C2 (stereo not drawn),> 100,> 100,> 100,> 100,> 100,–,–,–,–,–,–,–,–,–,–,–
NC(=S)NS(=O)(=O)c1ccc(Cl)cc1Cl,> 100,> 100,> 100,> 100,> 100,> 100,> 100,–,> 100,> 100,–,–,–,–,–,–
CC[N+]1(C)CCC(O)(/C=C/c2ccc(Cl)c(Cl)c2)C(C(=O)/C=C/c2ccc(Cl)c(Cl)c2)C1 (stereo not drawn),3.67,15.7,4.02,7.03,–,–,6.63,6.52,5.19,7.66,–,–,–,–,–,–
O=c1c2cc(Cl)ccc2n2nnc3ccc(NCCNCCO)c1c32,3.49,2.58,3.45,2.86,4.44,2.52,–,9.46,2.75,–,–,–,–,–,–,–
C=CC(=O)N1C/C(=C\c2ccc(F)cc2)C(=O)/C(=C/c2ccc(F)cc2)C1,2.17,4.47,0.556,3.32,> 100,1.85,20.1,1.42,1.79,0.876,–,–,–,–,–,–
CCCCCCCCCC[C@@H](O)[C@H]1CC[C@@H]([C@H]2CC[C@H]([C@H](O)CCCCCCCCCC[C@@H]3CC(CC(C)=O)C(=O)O3)O2)O1 (stereo partly drawn),34.6,> 100,24.8,> 100,> 100,85.5,–,> 100,99.4,3.78,15.2,14.3,25.4,0.754,11.9,19.8
C=C1C[C@]23CC[C@@H]4C(CO)(CO)CC(=O)C[C@]4(C)[C@@H]2C(O)C[C@H]1C3 (stereo partly drawn),> 100,> 100,–,> 100,> 100,> 100,> 100,> 100,> 100,> 100,–,–,–,–,–,–
Cn1c(=O)c2[nH]cnc2n(C)c1=O,> 100,> 100,–,> 100,> 100,–,> 100,> 100,> 100,> 100,–,–,–,–,–,–
Cc1ccc(N=Nc2cc(=O)[nH]c(=O)[nH]2)cc1C,32.6,34.7,24.9,–,> 100,31.8,> 100,29.4,11.7,–,–,–,–,–,–,–

# — PubChem BioAssay (NCI)
